The source of these data is patent US5068334A, “Pharmaceutical compositions containing quinolin-2,5-diones, new quinolin-2,5-diones and processes for the preparation thereof” (Karl Thomae GmbH, priority 1988, dated 1991).

For series [1], the system named is mechanically induced pain. The series is described as follows: effect on mechanically induced pain, tail clamp method (HAFFNER). The settings on record: Mus musculus, po, 0.5 h, male mice, oesophageal tube, 1% methylcellulose, 30 minute intervals, read-out: ED^50 (percentage of animals which showed no pain-reaction). Type of series: in vivo.
The nature of series [2]: acute toxicity in rats. The settings on record: in vivo, po; rat, both sexes, oesophageal tube, death within 14 days. The procedure: (§1) 5. The acute toxicity was determined in mice or rats of both sexes with an average weight of 20 g. The test substances were administered by oesophageal tube as a trituration in 1% methylcellulose (0.2 ml/10 g of animal). Wherever possible the LD50 was calculated according to LITCHFIELD and WILCOXON (J. Pharmacol. exp. Therap. 96, 99 (1949)) from the percentage of animals which died within 14 days after receiving various doses.

For series [3], the system named is pain of inflammation in rats. The series is described as follows: effect on the pain of inflammation in rats (RANDALL and SELITTO). Type of series: in vivo, rat. The settings on record: sc, male rats, oesophageal tube, 1% methylcellulose, after subcutaneous yeast. As to the method:
1. The effect on the pain of inflammation in rats was tested using the method of RANDALL and SELITTO (Arch. int. Pharmacodyn. 111, 409 (1957)). The test substances were administered to male rats weighing between 100 and 130 g as a trituration in 1% methylcellulose (1.0 ml/100 g of animal) 90 or 135 minutes after subcutaneous administration of yeast by oesophageal tube. From the pain threshold measured 90 or 45 minutes after administration of the various doses, the ED^50 was determined by linear regression analysis as the dosage which raised the pain threshold by 50%. The following

Series [4] can be described thus: acute toxicity in mice. The settings on record: in vivo, po; mouse, both sexes, oesophageal tube, death within 14 days; read-out: LD^50 Mouse. The procedure:
as §1

The test system of series [5] is heat-induced pain in mice. The series is described as follows: effect on heat-induced pain in mice (CHEN and BECKMAN). Type of series: in vivo. The settings on record: Mus musculus, po; male mice, oesophageal tube, 1% methylcellulose; read-out: ED^100 (dosage which doubled the reaction time). The procedure:
2. The effect on heat-induced pain in mice was investigated using the method of CHEN and BECKMAN (Science 113, 631 (1951). Male mice with an average weight of 20 g were given the test substances as a trituration in 1% methylcellulose (0.1 ml/10 g of animal by oesophageal tube. From the lengthening of the individual reaction time observed after various doses, the ED^100 was calculated by linear regression analysis as the dosage which doubled the reaction time.

For series [6], the system named is body temperature of normothermic rats. The series is described as follows: effect on body temperature of normothermic rats. Type of series: in vivo. The settings on record: Rattus norvegicus, po, oesophageal tube, 1% methylcellulose, rectal temperature, read-out: ED^-1.5° C. (dosage which lowered the body temperature by 1.5° C.). The procedure: 4. The effect on body temperature was investigated on normothermic rats weighing between 120 and 140 g. The test substances were administered by oesophageal tube as a trituration in 1% methylcellulose (1.0 ml/100 g of animal). From the lowering of rectal temperature observed after various dosages, the ED^-1.5° C. was calculated by linear regression analysis as the dosage which lowered the body temperature by 1.5° C.

Where [7] appears, read: 0.75 h, pain threshold 45 minutes after administration, read-out: ED^50 after 45 minutes (dosage which raised the pain threshold by 50%).
[8] abbreviates: 1.5 h, pain threshold 90 minutes after administration, read-out: ED^50 after 90 minutes (dosage which raised the pain threshold by 50%).

Where two headings read alike, the source gives them in different places.

With `CN1C(=O)CCC2=C1CCCC2=O` [Substance C, 1-methyl-3,4,7,8-tetrahydro-2,5(1H,6H)-quinolinedione], the ED50 in series [1] amounted to 129 mg/kg; in series [3] (setting [7]), 15 mg/kg; in series [3] (setting [8]) it was 21 mg/kg. Moreover, the values for the LD50 at 336 h in series [2] and in series [4] were 748 mg/kg and 985 mg/kg, respectively. Also, the ED100 in series [5] came to 99 mg/kg. In series [6], the ED (-1.5 degC) was 26 mg/kg.

With `Cc1cc2c(n(C)c1=O)CCCC2=O` [Substance F, 1,3-dimethyl-7,8-dihydro-2,5(1H,6H)-quinolinedione], the ED50 stood at 86 mg/kg in series [1], 12.5 mg/kg in series [3] (setting [7]) and 12.1 mg/kg in series [3] (setting [8]). The LD50 at 336 h in series [2] is 396 mg/kg; in series [4] it was 296 mg/kg. Moreover, the ED100 in series [5] is 109 mg/kg. Further, the ED (-1.5 degC) in series [6] came out at 36 mg/kg.

Turning to `Cc1cc2c([nH]c1=O)CCCC2=O` [Substance E, 3-methyl-7,8-dihydro-2,5(1H,6H)-quinolinedione], the figures for the ED50 in series [1], in series [3] (setting [7]) and in series [3] (setting [8]) were 102 mg/kg, 31 mg/kg and 36 mg/kg, respectively. For the same molecule, in series [4], the LD50 at 336 h amounted to 825 mg/kg. Moreover, the ED100 in series [5] amounted to 135 mg/kg. For the same molecule, in series [6], the ED (-1.5 degC) came to 34 mg/kg.

Regarding `CCCCn1c2c(c(C)cc1=O)C(=O)CCC2` [Substance H, 1-n-butyl-4-methyl-7,8-dihydro-2,5(1H,6H)-quinolinedione], the ED50 turned out to be 50 mg/kg in series [1] and 19.1 mg/kg in series [3] (setting [8]). Further, the ED100 in series [5] worked out at 101 mg/kg. Also, in series [6], the ED (-1.5 degC) worked out at 36 mg/kg.

Consider `CCN1C(=O)CCC2=C1CCCC2=O` [Substance I, 1-ethyl-3,4,7,8-tetrahydro-2,5(1H,6H)-quinolinedione], for which the ED50 stood at 55 mg/kg in series [1], 13 mg/kg in series [3] (setting [7]) and 16 mg/kg in series [3] (setting [8]). The ED100 in series [5] is 70 mg/kg. In addition, the ED (-1.5 degC) in series [6] was 22 mg/kg.

With `CC1CC2=C(CCCC2=O)NC1=O` (stereo not drawn) [Substance B, 3-methyl-3,4,7,8-tetrahydro-2,5(1H,6H)-quinolinedione], the ED50 was 100 mg/kg in series [1], 37 mg/kg in series [3] (setting [7]) and 39 mg/kg in series [3] (setting [8]). For the same molecule, the figures for the LD50 at 336 h in series [2] and in series [4] were 659 mg/kg and 1220 mg/kg, respectively. Besides, in series [5], the ED100 worked out at 155 mg/kg. The ED (-1.5 degC) in series [6] was found to be 35 mg/kg.

In the case of `CCn1c2c(c(C)cc1=O)C(=O)CCC2` [Substance G, 1-ethyl-4-methyl-7,8-dihydro-2,5(1H,6H)-quinolinedione], the ED50 stood at 26 mg/kg in series [1], 5.1 mg/kg in series [3] (setting [7]) and 5.9 mg/kg in series [3] (setting [8]). Besides, the ED100 in series [5] came to 59 mg/kg. The ED (-1.5 degC) in series [6] was determined as 11 mg/kg.

On to `Cn1c2c(ccc1=O)C(=O)CCC2` [Substance A, 1-methyl-7,8-dihydro-2,5(1H,6H)-quinolinedione], for which the values for the ED50 in series [1], in series [3] (setting [7]) and in series [3] (setting [8]) were 80 mg/kg, 8.7 mg/kg and 8.1 mg/kg, respectively. The LD50 at 336 h amounted to 489 mg/kg in series [2] and 767 mg/kg in series [4]. Moreover, the ED100 in series [5] is 71 mg/kg. In addition, in series [6], the ED (-1.5 degC) was 29 mg/kg.

Take `Cc1cc(=O)[nH]c2c1C(=O)CCC2` [Substance D, 4-methyl-7,8-dihydro-2,5(1H,6H)-quinolinedione]: the ED50 in series [1] was determined as 129 mg/kg; in series [3] (setting [7]) it was 21 mg/kg; in series [3] (setting [8]), 34 mg/kg. Moreover, the LD50 at 336 h in series [2] came to 1370 mg/kg. Further, in series [5], the ED100 turned out to be 98 mg/kg. Moreover, the ED (-1.5 degC) in series [6] is 25 mg/kg.
